We go through 17 molecules from PMC3714604 (European journal of medicinal chemistry, 2011).

One data set concerns rat brain membrane FAAH. The note with it: cited from earlier work.
Data set [1] in a line: In vitro chemical stability at alkaline pH. The format is physicochemical. The note with it: 1 μM, 300 nM, 100 nM.
Data set [2] is described as follows: In vitro stability in rat liver S9 fraction with NADPH-regenerating system. The following applies: for half-life: male, Wistar, rat, s9, pH 7.4. It counts as in vitro ADME.
A further data set has as its system FAAH. The note with it: rats; ref [24]; cited from earlier work.
[3] abbreviates: rat brain membrane FAAH activity, ref [24] and [38].

Molecules are shown by their SMILES. Like-named read-outs stand apart in the source and are kept apart here. Where only a bound is given, the exact number is not on record here.

For the molecule `CNC(=O)Oc1cccc(-c2ccccc2)c1` [Compound 3], the “pIC50, inhibitory potency toward FAAH in vitro activity” value (“pIC50, inhibitory potency toward FAAH” below) with rat brain membrane FAAH (setting [3]) is 4.86. As to `O=C(NC12CC3CC(CC(C3)C1)C2)Oc1cccc(-c2ccccc2)c1` [Compound 10], the “dependence of pseudo half-lives on concentration at pH 9.0” value (shortened to “dependence of pseudo half-lives”) in data set [1] was “No significant difference”. Besides, the “stability to in vitro liver metabolism” value in data set [2] (rat liver S9, entire testing period) is “remained stable for the entire testing period”. Moreover, the “pIC50, inhibitory potency toward FAAH” value with rat brain membrane FAAH (setting [3]) is on record as 5.39. Consider `O=C(NC1CCCC1)Oc1cccc(-c2ccccc2)c1` [Compound 8], for which the “pIC50, inhibitory potency toward FAAH” value with rat brain membrane FAAH (setting [3]) was 7.47. As to `O=C(NCCCCc1ccccc1)Oc1cccc(-c2ccccc2)c1` [Compound 16], the “dependence of pseudo half-lives” value in data set [1] is “No significant difference”. In addition, the “pIC50, inhibitory potency toward FAAH” value in the data set with rat brain membrane FAAH (setting [3]) is reported as 8.03. Further, the “ID50, in vivo potency on FAAH inhibition” value with FAAH is 0.96 mg/kg. In data set [2], `CCCCNC(=O)Oc1cccc(-c2ccccc2)c1` [Compound 5] had a half-life below 2 min. In addition, the “pIC50, inhibitory potency toward FAAH” value in the data set on rat brain membrane FAAH (setting [3]) is given as 6.95. For the molecule `O=C(NCCCCCCc1ccccc1)Oc1cccc(-c2ccccc2)c1` [Compound 17], in the data set on rat brain membrane FAAH (setting [3]), the “pIC50, inhibitory potency toward FAAH” value was 7.89. In the case of `O=C(NC1CCC1)Oc1cccc(-c2ccccc2)c1` [Compound 7], the “pIC50, inhibitory potency toward FAAH” value in the data set on rat brain membrane FAAH (setting [3]) is 7.27. With `O=C(NC1CCCCC1)Oc1cccc(-c2ccccc2)c1` [Compound 1], in data set [1], the “dependence of pseudo half-lives” value is on record as “No significant difference”. Moreover, in the data set with rat brain membrane FAAH (setting [3]), the “pIC50, inhibitory potency toward FAAH” value is recorded as 7.20. Further, the “ID50, in vivo potency on FAAH inhibition” value in the data set with FAAH was 0.81 mg/kg. For the molecule `NC(=O)c1cccc(-c2cccc(OC(=O)NCc3ccc4ccccc4c3)c2)c1` [Compound 19], in the data set with rat brain membrane FAAH, the “pIC50, inhibitory potency toward FAAH” value is recorded as 9.20. On to `CC(C)NC(=O)Oc1cccc(-c2ccccc2)c1` [Compound 4], for which, in data set [2], the half-life is below 2 min. In the data set with rat brain membrane FAAH (setting [3]), the “pIC50, inhibitory potency toward FAAH” value was 6.28. Take `CCCCCCNC(=O)Oc1cccc(-c2ccccc2)c1` [Compound 6]: in the data set on rat brain membrane FAAH (setting [3]), the “pIC50, inhibitory potency toward FAAH” value is given as 7.24. In turn, `O=C(NC1Cc2ccccc2C1)Oc1cccc(-c2ccccc2)c1` [Compound 13] returned a half-life in data set [2] above 60 min. Moreover, the “pIC50, inhibitory potency toward FAAH” value in the data set on rat brain membrane FAAH (setting [3]) was 6.67. `O=C(NCCc1ccccc1)Oc1cccc(-c2ccccc2)c1` [Compound 12]: the “pIC50, inhibitory potency toward FAAH” value in the data set with rat brain membrane FAAH (setting [3]) is reported as 6.32. With `O=C(NCCCCCCN1CCOCC1)Oc1cccc(-c2ccccc2)c1` [Compound 18], in the data set on rat brain membrane FAAH (setting [3]), the “pIC50, inhibitory potency toward FAAH” value is on record as 7.40. `O=C(NCc1ccc2ccccc2c1)Oc1cccc(-c2ccccc2)c1` [Compound 15]: in the data set on rat brain membrane FAAH (setting [3]), the “pIC50, inhibitory potency toward FAAH” value is 8.27. As to `O=C(NCc1ccccc1)Oc1cccc(-c2ccccc2)c1` [Compound 11], the “pIC50, inhibitory potency toward FAAH” value with rat brain membrane FAAH (setting [3]) was 6.86.

Take `O=C(NCC1CCCCC1)Oc1cccc(-c2ccccc2)c1` [Compound 9]: in the data set on rat brain membrane FAAH (setting [3]), the “pIC50, inhibitory potency toward FAAH” value was 7.18.

Broadly, the half-life is the time needed for the level to fall by half in the phase considered.
